According to patent US11420944B2, “Voltage-dependent t-type calcium channel blocker” (Nippon Chemiphar Co., Ltd., priority 2016, dated 2022):
pIC50: −log10 of the molar value. Read-outs that look alike come from different tables or passages of the source.

Legend:
human Cav3.2 channels [1] = target: T1, human Cav3.2 channels (Homo sapiens, UniProt O95180); assay: Intracellular calcium concentration measurement (Fluo-4 AM) in stable cells expressing human Cav3.2 channels, buffer A / buffer B; assay type: cell-based
T1 construct: expressed in transfected cells; host or cells: HEK293 cells (ATCC No. CRL-1573), plasmid pcDNA3.1(+)
T1 sequence (O95180 whole entry): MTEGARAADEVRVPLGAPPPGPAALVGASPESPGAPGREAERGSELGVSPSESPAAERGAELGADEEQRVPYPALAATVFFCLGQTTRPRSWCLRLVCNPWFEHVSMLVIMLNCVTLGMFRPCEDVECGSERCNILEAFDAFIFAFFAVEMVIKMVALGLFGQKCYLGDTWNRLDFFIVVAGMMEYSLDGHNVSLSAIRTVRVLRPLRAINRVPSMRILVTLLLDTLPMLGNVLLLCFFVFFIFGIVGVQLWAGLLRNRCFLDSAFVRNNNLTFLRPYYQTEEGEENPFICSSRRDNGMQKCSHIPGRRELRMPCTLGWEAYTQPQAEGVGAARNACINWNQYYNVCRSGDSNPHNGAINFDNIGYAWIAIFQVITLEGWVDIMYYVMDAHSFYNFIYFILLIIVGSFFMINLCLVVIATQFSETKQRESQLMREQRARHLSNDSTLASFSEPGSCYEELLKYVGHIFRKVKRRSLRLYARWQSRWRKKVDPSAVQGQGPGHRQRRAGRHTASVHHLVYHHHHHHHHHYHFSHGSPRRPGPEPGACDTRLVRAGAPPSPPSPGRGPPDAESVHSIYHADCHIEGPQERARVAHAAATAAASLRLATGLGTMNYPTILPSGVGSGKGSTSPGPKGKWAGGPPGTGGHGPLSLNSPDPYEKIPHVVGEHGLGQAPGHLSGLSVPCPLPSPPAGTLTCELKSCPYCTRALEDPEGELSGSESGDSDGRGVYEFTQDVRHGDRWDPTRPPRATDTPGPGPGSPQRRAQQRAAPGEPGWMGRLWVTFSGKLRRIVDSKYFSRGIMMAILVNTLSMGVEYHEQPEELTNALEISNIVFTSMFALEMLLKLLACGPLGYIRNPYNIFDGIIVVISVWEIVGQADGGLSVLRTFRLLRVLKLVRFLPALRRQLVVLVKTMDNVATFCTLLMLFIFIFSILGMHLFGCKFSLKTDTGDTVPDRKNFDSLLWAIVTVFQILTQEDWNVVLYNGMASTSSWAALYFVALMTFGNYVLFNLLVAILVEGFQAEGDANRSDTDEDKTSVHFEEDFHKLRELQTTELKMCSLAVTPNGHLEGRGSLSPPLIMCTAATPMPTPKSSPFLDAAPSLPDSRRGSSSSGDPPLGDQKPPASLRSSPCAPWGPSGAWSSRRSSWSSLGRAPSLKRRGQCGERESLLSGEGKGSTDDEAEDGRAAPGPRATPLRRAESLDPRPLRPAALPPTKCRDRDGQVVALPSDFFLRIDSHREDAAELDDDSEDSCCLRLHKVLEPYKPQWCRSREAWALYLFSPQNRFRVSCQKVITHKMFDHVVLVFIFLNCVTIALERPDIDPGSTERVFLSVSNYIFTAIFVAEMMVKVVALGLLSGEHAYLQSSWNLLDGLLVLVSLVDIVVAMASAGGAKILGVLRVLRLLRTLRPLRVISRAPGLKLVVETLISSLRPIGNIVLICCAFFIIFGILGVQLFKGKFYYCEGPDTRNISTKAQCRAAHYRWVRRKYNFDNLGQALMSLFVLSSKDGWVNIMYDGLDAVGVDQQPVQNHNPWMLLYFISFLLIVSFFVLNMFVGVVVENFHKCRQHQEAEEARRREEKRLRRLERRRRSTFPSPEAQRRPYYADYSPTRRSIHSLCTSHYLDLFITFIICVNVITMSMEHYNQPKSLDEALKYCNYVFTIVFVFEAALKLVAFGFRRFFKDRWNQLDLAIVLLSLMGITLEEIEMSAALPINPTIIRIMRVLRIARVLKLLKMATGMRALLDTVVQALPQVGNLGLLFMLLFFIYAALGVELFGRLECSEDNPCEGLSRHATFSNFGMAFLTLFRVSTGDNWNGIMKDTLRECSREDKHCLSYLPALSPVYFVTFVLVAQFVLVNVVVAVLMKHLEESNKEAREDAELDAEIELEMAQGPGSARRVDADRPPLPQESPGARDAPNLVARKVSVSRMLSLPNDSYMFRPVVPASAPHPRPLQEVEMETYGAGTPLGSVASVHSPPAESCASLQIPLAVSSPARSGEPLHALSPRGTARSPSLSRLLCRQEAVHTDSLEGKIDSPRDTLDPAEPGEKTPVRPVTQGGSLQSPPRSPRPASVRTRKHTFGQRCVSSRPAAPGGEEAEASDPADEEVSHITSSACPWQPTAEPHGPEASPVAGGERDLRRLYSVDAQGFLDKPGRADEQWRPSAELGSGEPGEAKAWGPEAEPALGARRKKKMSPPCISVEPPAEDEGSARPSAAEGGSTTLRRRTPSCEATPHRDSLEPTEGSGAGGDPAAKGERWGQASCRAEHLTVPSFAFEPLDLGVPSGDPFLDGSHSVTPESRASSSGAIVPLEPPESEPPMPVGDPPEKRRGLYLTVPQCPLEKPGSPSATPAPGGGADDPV
How it was run: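 HEK293 cells stably expressing human Cav3.2, Fluo-4 loaded, preincubated 15 min at room temperature with compound (0.1% DMSO final) in buffer A (K+ equilibrium −92 mV) or B (−110 mV). After ionophore, KCl (83.8 or 91.8 mM) stimulus; 10 s fluorescence rise (ex 485/em 510 nm) gave % inhibition and IC50.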

CYP3A4 = target: T2, CYP3A4 (Homo sapiens, UniProt P08684); assay: Evaluation of CYP3A4 activity inhibitory action; assay type: in vitro ADME; settings: Human CYP3A4BR EasyCYP Bactosomes, 7-Benzyloxy-4-(trifluoromethyl)-coumarin
T2 construct: purchased Cypex, Ltd; host or cells: E. coli membranes (Bactosomes)
T2 sequence (P08684 whole entry): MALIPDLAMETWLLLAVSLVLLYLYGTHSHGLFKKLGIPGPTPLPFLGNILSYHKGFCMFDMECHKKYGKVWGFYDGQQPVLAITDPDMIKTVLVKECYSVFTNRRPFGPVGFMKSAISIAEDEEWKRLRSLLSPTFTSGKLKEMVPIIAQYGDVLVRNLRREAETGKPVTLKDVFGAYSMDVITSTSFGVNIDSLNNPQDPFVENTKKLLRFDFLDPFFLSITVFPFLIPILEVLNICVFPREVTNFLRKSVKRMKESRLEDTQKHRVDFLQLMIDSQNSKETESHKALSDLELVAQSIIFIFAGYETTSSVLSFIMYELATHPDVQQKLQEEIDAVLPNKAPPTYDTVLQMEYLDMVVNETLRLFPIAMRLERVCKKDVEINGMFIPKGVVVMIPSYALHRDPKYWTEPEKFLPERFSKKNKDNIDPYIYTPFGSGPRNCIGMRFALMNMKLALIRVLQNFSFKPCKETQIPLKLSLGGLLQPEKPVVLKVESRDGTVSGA
Protocol: Evaluation of CYP3A4 Activity Inhibitory Action
To a 50 mM potassium phosphate buffer solution (pH 7.4), 5 nM Human CYP3A4BR EasyCYP Bactosomes (Cypex, Ltd.), 50 μM 7-Benzyloxy-4-(trifluoromethyl)-coumarin, cofactor mix (0.0081 mM β-NADP^+, 0.4 mM G-6-P, 0.4 mM MgCl2, and 0.2 U/mL G-6-P DH(Y)), and 0.01% Pluronic F-127 were added, and the mixture was incubated for 45 minutes at 37° C. The reaction was initiated by adding the cofactor mix. After the incubation, 0.5 M Tris base/acetonitrile (20:80) was added thereto as a reaction terminating liquid, and the resulting mixture was stirred. Subsequently, the fluorescence intensity (excitation: 405 nm, emission: 535 nm) was measured. The reaction was carried out in duplicate. The results are presented as the inhibition rate at 10 μM of the test compound.

human Cav3.2 channels [2] = target: T1, human Cav3.2 channels; assay: Electrophysiological evaluation, whole-cell patch-clamp with automatic patch-clamp system; assay type: cell-based; settings: 0.3 μM, holding potential −80 mV; read-out: Cav3.2 channel current inhibition ratio at 0.3 μM of test compound (holding potential −80 mV)
Protocol: Electrophysiological Evaluation
Stable cell line expressing human Cav3.2 channels, which had been produced by Test method (1) of Example 140, was seeded in a 10-cm dish using DMEM medium containing 10% FBS, and the cells were cultured for 24 hours or longer under the conditions of 37° C. and 5% CO2. The cells were detached using Accutase and were used after being suspended in ice-cold extracellular solution. The Cav3.2 channel current was measured by the Whole-cell patch-clamp method using an automatic patch-clamp system (Port-a-Patch; Nanion Technologies GmbH, EPC-10; HEKA Elektronik GmbH, Patchmaster; HEKA Elektronik GmbH) and buffers described below. Measurement of the Cav3.2 channel current was carried out at room temperature, and the measurement conditions were set as follows: holding potential: −80 mV, depolarization potential: −20 mV, depolarization time: 100 msec, and depolarization frequency: 10 sec. The Cav3.2 channel current was defined as the peak value of the inward current observed when depolarization occurred at −20 mV.
For a test compound, a DMSO solution was diluted 1,000 times with extracellular solution, and thus a solution having an intended concentration was produced. The test compound was applied using an extracellular perfusion system (Nanion Technologies GmbH) until the Cav3.2 channel current was stabilized, and five concentrations at the maximum from the low-concentration side were cumulatively applied. The inhibition ratio of the test compound was calculated from the current value immediately before the application of the test compound and the change rate of the Cav3.2 channel current after the application of the test compound (conditions for a holding potential of −80 mV: test compound concentration of 0.3 μM, conditions for a holding potential of −100 mV: test compound concentration of 3 μM).
Extracellular solution: 135 mM NaCl, 4 mM KCl, 1 mM MgCl2, 5 mM CaCl2, 5 mM D-Glucose, and 10 mM HEPES, pH 7.4
Internal solution for electrode: 10 mM NaCl, 10 mM HEPES, 50 mM CsCl, 60 mM CsF, and 20 mM EGTA, pH 7.2

[3] = Tables 2 to 6, buffer A, equilibrium potential of potassium −92 mV, read-out: Inhibitory action of buffer A (inactivated state)
[4] = Table 1, buffer A, equilibrium potential of potassium −92 mV, read-out: Inhibitory action of buffer A (inactivated state)
[5] = Table 1, buffer B, equilibrium potential of potassium −110 mV, read-out: Inhibitory action of buffer B (resting state or closed state)

SMILES	pIC50 (human Cav3.2 channels [1]; [3])	CYP3A4 activity inhibition ratio at 10 μM of test compound (CYP3A4) [%]	pIC50 (human Cav3.2 channels [1]; [4])	pIC50 (human Cav3.2 channels [1]; [5])	inhibition at 0.3 µM (human Cav3.2 channels [2]) [%]
C[C@@H](NC(=O)C1CC1c1nccn1C)c1ccc(OCC(F)(F)F)s1 (mixture of isomers) [Example 20, Trans-2-(1-methyl-1H-imidazol-2-yl)-N—((R)-1-(5-(2,2,2-trifluoroethoxy)thiophen-2-yl)ethyl)cyclopropane-1-carboxamide]	5.00 to 6.00	27.4			
C[C@@H](NC(=O)C1CC1c1nc2ccccc2n1C)c1ccc(OCC(F)(F)F)s1 (single isomer, unassigned) [Example 4A]		39.6	≥ 7.00	< 5.00	58
C[C@@H](NC(=O)C1CC1c1nc2ccccc2[nH]1)c1ccc(C(F)(F)F)s1 (single isomer, unassigned) [Example 5A]		13.0	6.00 to 7.00	6.00 to 7.00	59
C[C@@H](NC(=O)C1CC1c1c[nH]c2ccccc12)c1ccc(OCC(F)(F)F)s1 (single isomer, unassigned) [Example 21A]	6.00 to 7.00	16.9			
C[C@@H](NC(=O)C1CC1c1c[nH]c2ccccc12)c1ccc(OCC(F)(F)F)s1 (single isomer, unassigned) [Example 21B]	6.00 to 7.00	23.3			
C[C@@H](NC(=O)C1CC1c1ccc2cnn(C)c2c1)c1ccc(OCC(F)(F)F)s1 (single isomer, unassigned) [Example 22A]	6.00 to 7.00	12.2			81
C[C@@H](NC(=O)C1CC1c1nc(-c2ccccc2)c[nH]1)c1ccc(OCC(F)(F)F)s1 (single isomer, unassigned) [Example 31A]	6.00 to 7.00	7.0			
CCn1c(C2CC2C(=O)N[C@H](C)c2ccc(OCC(F)(F)F)s2)nc2ccccc21 (single isomer, unassigned) [Example 54]	≥ 7.00	−1.1			
CCN(CC)C(=O)c1ccc([C@@H](C)NC(=O)C2CC2c2nc3ccccc3[nH]2)s1 (stereo in doubt) [Example 32, Trans-5-((1R)-1-(2-(1H-benzo[d]imidazol-2-yl)cyclopropane-1-carboxamido)ethyl)-N,N-diethylthiophene-2-carboxamide]	6.00 to 7.00	23.3			
C[C@@H](NC(=O)[C@@H]1CCN(c2nc3ccccc3[nH]2)C1)c1ccc(OCC(F)(F)F)s1 [Example 12]		84.4	6.00 to 7.00	5.00 to 6.00	
C[C@@H](NC(=O)[C@@H]1CCN(CC(=O)Nc2ccccc2)C1)c1ccc(OCC(F)(F)F)s1.Cl [Example 17]		31.8			
CC(C(=O)Nc1ccccc1)N1CC[C@@H](C(=O)N[C@H](C)c2ccc(OCC(F)(F)F)s2)C1 (stereo partly drawn) [Example 24, (3R)-1-(1-oxo-1-(phenylamino)propan-2-yl)-N—((R)-1-(5-(2,2,2-trifluoroethoxy)thiophen-2-yl)ethyl)pyrrolidine-3-carboxamide]	6.00 to 7.00	51.1			
C[C@@H](NC(=O)C1CC1c1nc2ccccc2[nH]1)c1ccc(C(=O)OC(C)(C)C)s1 (stereo partly drawn) [Example 25, Trans-5-((1R)-1-(2-(1H-benzo[d]imidazol-2-yl)cyclopropane-1-carboxamido)ethyl)thiophene-2-carboxylic acid tert-butyl ester]		8.7			
C[C@@H](NC(=O)[C@H]1C[C@@H]1c1nc2ccccc2[nH]1)c1ccc(C(=O)N2CCCC2)s1 [Example 33, Trans-2-(1H-benzo[d]imidazol-2-yl)-N—((R)-1-(5-(pyrrolidine-1-carbonyl)thiophen-2-yl)ethyl)cyclopropane-1-carboxamide]	6.00 to 7.00	−12.8			
C[C@@H](NC(=O)C1CC1c1ccc2ccccc2n1)c1ccc(OCC(F)(F)F)s1 (stereo partly drawn) [Example 34, Trans-2-(quinolin-2-yl)-N—((R)-1-(5-(2,2,2-trifluoroethoxy)thiophen-2-yl)ethyl)cyclopropane-1-carboxamide]		19.6			
C[C@@H](NC(=O)C1CC1c1nc2cc(Cl)ccc2[nH]1)c1ccc(OCC(F)(F)F)s1 (stereo partly drawn) [Example 53, Trans-2-(5-chloro-1H-benzo[d]imidazol-2-yl)-N—((R)-1-(5-(2,2,2-trifluoroethoxy)thiophen-2-yl)ethyl)cyclopropane-1-carboxamide]		3.0			
CCn1c(C2CC2C(=O)N[C@H](C)c2cnc(OCC(F)(F)F)s2)nc2ccccc21 (stereo partly drawn) [Example 57, Trans-2-(1-ethyl-1H-benzo[d]imidazol-2-yl)-N—((R)-1-(2-(2,2,2-trifluoroethoxy)thiazol-5-yl)ethyl)cyclopropane-1-carboxamide]		−1.4			
C[C@@H](NC(=O)[C@H]1C[C@@H]1c1nc2ccccc2[nH]1)c1ccc2cc[nH]c2c1 [Example 58, (1S,2S)—N—((R)-1-(1H-indol-6-yl)ethyl)-2-(1H-benzo[d]imidazol-2-yl)cyclopropane-1-carboxamide]	6.00 to 7.00	53.5			
C[C@@H](NC(=O)[C@H]1C[C@@H]1c1nc2ccccc2[nH]1)c1cc2cc(C(F)(F)F)ccc2o1 [Example 109, (1S,2S)-2-(1H-benzo[d]imidazol-2-yl)-N—((R)-1-(5-(trifluoromethyl)benzofuran-2-yl)ethyl)cyclopropane-1-carboxamide]	6.00 to 7.00	24.1			
C[C@@H](NC(=O)[C@H]1C[C@@H]1c1nc2ccccc2[nH]1)c1cc2ccc(C(F)(F)F)cc2o1 [Example 123, (1S,2S)-2-(1H-benzo[d]imidazol-2-yl)-N—((R)-1-(6-(trifluoromethyl)benzofuran-2-yl)ethyl)cyclopropane-1-carboxamide]	≥ 7.00	11.7			
CC(C)[C@@H](NC(=O)[C@H]1C[C@@H]1c1nc2ccccc2[nH]1)c1cc2ccc(F)cc2o1 [Example 124, (1S,2S)-2-(1H-benzo[d]imidazol-2-yl)-N—((R)-1-(6-fluorobenzofuran-2-yl)-2-methylpropyl)cyclopropane-1-carboxamide]	≥ 7.00	28.6			
C[C@@H](NC(=O)[C@H]1C[C@@H]1c1nc2cc(F)ccc2[nH]1)c1cc2cc(F)ccc2o1 [Example 125, (1S,2S)-2-(5-fluoro-1H-benzo[d]imidazol-2-yl)-N—((R)-1-(5-fluorobenzofuran-2-yl)ethyl)cyclopropane-1-carboxamide]	≥ 7.00	25.0			
C[C@H](c1cc2ccc(F)cc2o1)N(C)C(=O)[C@H]1C[C@@H]1c1nc2ccccc2[nH]1 [Example 129, (1S,2S)-2-(1H-benzo[d]imidazol-2-yl)-N—((R)-1-(6-fluorobenzofuran-2-yl)ethyl)-N-methylcyclopropane-1-carboxamide]	6.00 to 7.00	56.0			
C[C@@H](NC(=O)Cc1ccc(C2CC2)cc1)c1ccc(OCC(F)(F)F)cn1 [TTA-A2, reference compound]		55.7			
